Laboratory results taken from patent US10849966B2, “Methods for treating netosis and neutrophil activation” (TRUSTEES OF BOSTON UNIVERSITY, priority 2017, dated 2020).
Several values for one entry are separate records, joined by “and”; a condition that tells them apart may be missing. Equal entries are not always repeated.

How the values were obtained:
[1] = system: activated neutrophils; test: dose-response survival assay of activated neutrophils (Trypan blue dye exclusion); type: cell-based; conditions: live cells counted by Trypan blue dye exclusion; listed as 6g8-humab; read-out: IC50, inhibition of activated neutrophil survival
Description: FIG. 6 depicts a graph comparison of functional activity of anti-DEspR fully humanized 6g8 mAb, 6g8-humab, and prototype murine anti-DEspR 6g8 mAb, 6g8-mumab.
FIGS. 17A-17C depict anti-DEspR-mab (hu6g8 mab). FIG. 17A depicts a diagram of DEspR, murine precursor mabs and humanized IgG and IgG4 mabs. Hu6g8 is notated as 6g8g7-hu-IgG4 raised against epitope 2, spanning the putative binding domain.
Described herein are the advantages of anti-DEspR mAb targeted AECs. DEspR, the dual endothelin1/signal peptide receptor,^9 is a validated target on human activated neutrophils and NETs. Hu6g8 binds human activated neutrophils (FIG. 18A) and NETs (FIG. 18B), as confirmed by Western Blot analysis of DEspR protein in human kidney (K), and activated neutrophil samples, act-Ns (FIG. 18C). Humanized anti-DEspR-mab (hu6g8 mab) is an ideal targeting moiety. Hu6g8 is the multi-species Human/NHPrimate/Rat reactive humanized-deimmunized anti-DEspR-mab with a hinge-stabilized IgG4S228P/kappa Fc region (FIG. 17A) to avoid (ADCC-antibody dependent cell-mediated cytotoxicity, CDC-complement dependent cytotoxicity), and to eliminate loss of targeting upon Fab arm exchange typical of native IgG4 isotype. […] Through recombinant DNA technology, the antibody design incorporates: a) avoidance of T-cell epitopes for low immunogenicity; b) optimization of heavy and light chain interactions for stability of variable domains; and, c) exclusion of destabilizing post-translational modification sites [e.g., deamidation, oxidation]. The targeting of DEspR^+ NETs, but sparing of DEspR(−) quiescent neutrophils via the anti-DEspR mAb is also novel. […] The use of human neutrophil-elastase cleavable linker is advantageous as this connector-peptide can be added by recombinant technology and HNE is enriched on NETs and actually a reason for the injurious properties of NETs. HNE is desirable for local therapeutic delivery [Owen C A, Campbell E J. J Leukocyte Biol 1999, 65 (2) 137-150], has specificity for small uncharged amino acids particularly alanine (A) and valine (V) [Meers P. Adv Drug Delivery Rev. 2001. 53 (3) 265-272]. […] The advantages of all three in an AEC is novel and robust as the targeted delivery and release of DNAse 1 on NETs can attain in vivo efficacy of what has been shown in vitro, the induction of macrophage uptake-and-clearance of NETs upon DNAse 1 digest of NETs DNA. In summary, targeting the intravascular NETs sites. The humanized anti-DEspR-mab with a hinge-stabilized IgG4/kappa Fc region to avoid Fab arm exchange in vivo and ensuing loss of targeting was selected. Additionally, this avoids immune effector functions of IgG1 mAbs (ADCC, CDC), which would worsen endothelial injury. […]

[2] = system: chronic kidney disease in Tg25+ male rats; test: CKD in Tg25+ male rats fed a HSD; type: in vivo, rat; conditions: hu-6g8 3 mg/kg IV at D0, D7, D14 and D21, Mean ± SD
[3] = PK study in Panc1 xenograft mice; type: in vivo; conditions: 15 mg/kg i.v. (n=3)
[4] = system: DEspR+/CD11b+ neutrophils; test: ex vivo treatment of ARDS patient whole blood, neutrophil survival (FACS); type: cell-based, human; set-up: baseline DEspR+/CD11b+ neutrophil percentage: concentration or dose not given beside the values; conditions: for Observed decrease in neutrophil survival: 10 μg/ml; for baseline DEspR+/CD11b+ neutrophil percentage: equals baseline DEspR+/CD11b+ neutrophils
Description: Neutrophils were gated for unique size/granularity properties via FSC (size) and SSC (granularity) gating. […] FSC, forward side scatter. SSC, side scatter. N=4-5 replicates; mean+/−SD. Whole blood incubated at 37 C for 24 hours (reg incubator, rotating, in HEPES buffer) for A02 and A03. 37 C for 6 hours for A04, A05, and A06. ABTM-468(cho) at 10 ug/mL. *, P=0.0286 Mann-Whitney Rank Sum Test. ARDS patients survivors: A01, A04, A05, A06. ARDS non-survivor: A02.

## hu-6g8: fully humanized anti-DEspR mAb with a S228P hinge-stabilized IgG4/kappa FC region
[1]
  IC50: < 8 nM and 7.7 nM
[2]; D14
  Albuminuria: 217 ± 87 mg/kg/day
  Creatinine Clearance: 279 ± 82 µL/min
  UACR (urinary albumin/urinary creatinine ratio): 8309 ± 3731
  Urinary Exosome Excretion: 771 ± 220 mg/kg/day
[2]; D28
  Albuminuria: 164.8 ± 86 mg/kg/day
  Creatinine Clearance: 268 ± 30 µL/min
  UACR (urinary albumin/urinary creatinine ratio): 5567 ± 2210
  Urinary Exosome Excretion: 651 ± 191 mg/kg/day
[3]
  half-life: 40.8 h
[4]; patient A02 (Died), incubation 24 hrs, 79 hrs from ARDS diagnosis, baseline DEspR+/CD11b+ 59.2%, P 0.029, listed as anti-DEspR humanized IgG4S228P antibody
  Observed decrease in neutrophil survival: decreased survival
[4]; patient A02
  baseline DEspR+/CD11b+ neutrophil percentage: 59.2%
[4]; patient A03 (DNR, D.), incubation 24 hrs, 96 hrs from diagnosis, baseline DEspR+/CD11b+ 1.5%
  Observed decrease in neutrophil survival: No effect
[4]; patient A03
  baseline DEspR+/CD11b+ neutrophil percentage: 1.5%
[4]; patient A04 (Surv), incubation 6 hrs, 96 hrs from diagnosis, baseline DEspR+/CD11b+ 0.9%, listed as ABTM-468
  Observed decrease in neutrophil survival: No effect
[4]; patient A04 (Surv), incubation 6 hrs, 96 hrs from diagnosis, baseline DEspR+/CD11b+ 0.9%, listed as anti-DEspR humanized IgG4S228P antibody
  Observed decrease in neutrophil survival: no effect
[4]; patient A04
  baseline DEspR+/CD11b+ neutrophil percentage: 0.9%
[4]; patient A05 (Surv), incubation 6 hrs, 72 hrs from diagnosis, baseline DEspR+/CD11b+ 3%, listed as ABTM-468
  Observed decrease in neutrophil survival: No effect
[4]; patient A05 (Surv), incubation 6 hrs, 72 hrs from diagnosis, baseline DEspR+/CD11b+ 3%, listed as anti-DEspR humanized IgG4S228P antibody
  Observed decrease in neutrophil survival: no effect
[4]; patient A05
  baseline DEspR+/CD11b+ neutrophil percentage: 3%
[4]; patient A06 (Surv), incubation 6 hrs, 48 hrs from diagnosis, baseline DEspR+/CD11b+ 16.1%, n.s., listed as anti-DEspR humanized IgG4S228P antibody
  Observed decrease in neutrophil survival: Some efficacy is observed but variable
[4]; patient A06
  baseline DEspR+/CD11b+ neutrophil percentage: 16.1%
